For 6 molecules, IC50 results are on record in US6949575B2, “Method of inhibiting amyloid protein aggregation and imaging amyloid deposits using aminoindane derivatives” (Pfizer Inc., priority 2000, dated 2005).

Each structure is given as a SMILES string.

In one assay the target is T1, Aβ (1-42) (Homo sapiens, UniProt P05067).
T1 construct: Required Aβ (1-42) (California Peptide); purchased California Peptide
The experiment in a line: Batym Assay: Aβ (1-42) aggregation, Thioflavin T fluorescence. Type of assay: biochemical. Particulars: Aβ1-42 final 100 μM, 37° C., 1 day, read-out: BAYTM IC50. The procedure: Required Aβ (1-42) (California Peptide) was dried from its HFIP stock solution. The Aβ (1-42) was dissolved in DMSO and then mixed with phosphate buffered saline (PBS) (pH 7.4). The mixed Aβ (1-42) solution was filtered with a Omnipore membrane 0.2-μm syringe filter (Millipore, Bedford, Mass.). The compound to be tested in DMSO (50× concentrate) was put into each well (0.5 μL/well) of a 96-well plate. The Aβ (1-42) solution was added into each well (24.5 μL/well). The plate was centrifuged at 1,000 g for 5 minutes and incubated at 37° C. for 1 day (Aβ1-42; final concentration 100 μM).
After incubation, Thioflavin T (ThT) (30 μM) solution in glycine-NaOH buffer (pH 8.5, 50 mM) was added into each well (250 μL/well), fluorescence was measured (ex=440/20 nm; em=485/20 nm) using a fluorescence plate reader. The inhibitory activity was calculated as the reduction of fluorescence with the following formula: Inhibition (%)={(F(Aβ)−F(Aβ+compound)}/{F(Aβ)−[…]}×100
The IC50s were calculated by a curve fitting program using the following equation. The data were obtained from two different experiments in triplicate. Inhibition (x)=100−100/{1+(x/IC50)^n}. • x=concentration of tested compound (M). • IC50=(M). • n=Hill coefficient.

The next assay concerns the target T2, Aβ (1-40) peptide (Homo sapiens, UniProt P05067).
T2 construct: Aβ (1-40) peptide in 20% HFIP
Briefly: BAPA (Beta-Amyloid Peptide Aggregation, pH 6.0), filtration endpoint. It counts as biochemical. To be noted: Aβ(1-40) 33 μM, pH 6.0, 2 to 4 hours, room temperature. Here is the method:
• 1) Prepare the reaction mix above by mixing the components and storing on ice. • 2) Pipet 14.5 μL of reaction mixture into each of 50 wells of a polystyrene U-bottom 96-well microtiter plate (Coming 25881-96) on ice. • 3) Add 1.7 μL of diluted compound to be tested to each well in a column of eight, including solvent control. Serial 3-fold dilutions from 1 mM (100 μM final) in assay buffer-urea=7 dilutions+zero. Each 96-well plate can therefore accommodate 11 samples+1 Congo Red control (0.039-5 μM final in 2-fold steps). • 4) Seal the plate with aluminum film and incubate for 10 minutes on ice. • 5) Raise the temperature to 37° C. and incubate for 3 to 5 hours (depends on the lot of the peptide). • 6) Remove the aluminum film and add 250 μL/well of 5 μM thioflavin T (ThT) [T-3516, Sigma-Aldrich] in 50 mM glycine-NaOH, pH 8.5. Read fluorescence on a plate reader (ex=440 nm/20 nm; em=485 nm/20 nm) within 5 minutes. BAPA (Beta-Amyloid Peptide Aggregation) This assay is used to provide a measure of inhibition by a compound against the aggregation behavior of the β-amyloid peptide. The purpose of this assay is to provide a higher volume method of assaying the amount of β-amyloid aggregation using an endpoint assay based on filtration. In this assay, hexafluoroisopropanol (HFIP) is used to break down the initial amyloid peptide to a monomer state and use a concentration of 33 μM which is high enough so that aggregation will occur at pH 6.0 in several hours. Methods: Beta-Amyloid Peptide Aggregation, pH 6.0 (BAPA) In a 96-well plate (Costar 3794), we add 25 μL 50 mM phosphate buffer, pH 6.0, 10 μL 0.5 mg/mL Aβ (1-40) peptide in 20% HFIP+0.1 μL/assay radioiodinated ^125I Aβ (1-40) [^125I Aβ(1-40)], and 1 μL of the compound to be tested starting at 50 mM with a concentration of DMSO<1%. Then, we incubate for 2 to 4 hours at room temperature. We stop the reaction with 200 μL of 50 mM phosphate buffer, pH 6.0, and filter it through a 0.2 μm 96-well filter plate (Millipore MAGU […]). We wash the filter plate with 100 μL of the same phosphate buffer. Aggregation was detected on a Microbeta counter after impregnating the filters with Meltilex (1450-441) and is corrected for background.

T1 sequence (P05067 672-713 limits assumed): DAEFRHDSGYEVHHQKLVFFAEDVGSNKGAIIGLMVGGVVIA
T2 sequence (P05067 672-711 limits assumed): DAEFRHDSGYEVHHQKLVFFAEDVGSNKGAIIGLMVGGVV

On to `CCCCCN(CCCCC)C1Cc2ccc(Nc3ccc([N+](=O)[O-])cc3C(=O)O)cc2C1` (stereo not drawn) [Example 1, 2-[(2-N,N-di-n-pentylamino)-indan-5-yl]amino-5-nitro-benzoic Acid], for which the IC50 (in general, the concentration that inhibits the measured activity by half) on Aβ (1-42) was above 100 µM; against Aβ (1-40) peptide it was 33 µM.
Regarding `COc1ccc(Nc2ccc3c(c2)CC(NCc2ccc(Cl)c(Cl)c2)C3)c(C(=O)O)c1` (stereo not drawn) [Example 5, 2-[2-(3,4-Dichlorobenzylamino)-indan-5-ylamino]-5-methoxy-benzoic acid], the 50% inhibitory concentration (IC50) at Aβ (1-42) is above 100 µM; at Aβ (1-40) peptide it was 165 µM.
In the case of `CCCCCN(CCCCC)C1Cc2ccc(Nc3ccc(C)cc3C(=O)O)cc2C1` (stereo not drawn) [Example 6, 2-(2-Dipentylamino-indan-5-yl-amino)-5-methyl-benzoic acid], the IC50 on Aβ (1-42) was above 100 µM; against Aβ (1-40) peptide, 118 µM.
With `CCCCCN(CCCCC)C1Cc2ccc(Nc3ccc(C(=O)O)cc3[N+](=O)[O-])cc2C1` (stereo not drawn) [Example 7, 4-(2-Dipentylamino-indan-5-yl-amino)-3-nitro-benzoic Acid], the IC50 at Aβ (1-42) is above 100 µM; on Aβ (1-40) peptide it was 118 µM.
For `O=C(O)c1cc([N+](=O)[O-])ccc1Nc1ccc2c(c1)CC(NCc1ccc(F)cc1)C2` (stereo not drawn) [Example 10, 2-[2-(4-Fluorobenzylamino)-indan-5-ylamino]-5-nitro-benzoic acid], the IC50 was 53.8 µM on Aβ (1-42) and above 100 µM at Aβ (1-40) peptide.
Consider `CCCCCNC1Cc2ccc(Nc3ccc([N+](=O)[O-])cc3C(=O)O)cc2C1` (stereo not drawn) [Example 12, 2-[2-(n-Pentylamino)-indan-5-ylamino]-5-nitro-benzoic acid], for which the IC50 at Aβ (1-42) is above 100 µM; against Aβ (1-40) peptide, 5 µM.
